# How the values were obtained:
# Format in all cases: in vivo
# [1] = tested on: Italian ryegrass (Lolium multiflorum); experiment: Test A preemergence, visual injury rating; conditions: 0 to 100 scale (0 no effect, 100 complete control)
# Summary of the method: (§1)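 Greenhouse pot test, loam/sand soil. Formulation: non-phytotoxic solvent mix plus surfactant. Pre: directed spray onto soil after sowing. Post: plants at 1–2 leaf, 2–10 cm. Rated visually vs untreated controls at ~10 d, 0 (no effect) to 100 (complete control).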
# [2] = tested on: barnyardgrass (Echinochloa crus-galli); experiment: Test A preemergence, visual injury rating; conditions: 0 to 100 scale (0 no effect, 100 complete control)
# Summary of the method: as §1
# [3] = tested on: giant foxtail (Setaria faberii); experiment: Test A preemergence, visual injury rating; conditions: 0 to 100 scale (0 no effect, 100 complete control)
# Summary of the method: as §1
# kochia (Kochia scoparia) = experiment: Test A preemergence, visual injury rating; conditions: 0 to 100 scale (0 no effect, 100 complete control)
# Summary of the method: as §1
# [4] = tested on: pigweed (Amaranthus retroflexus); experiment: Test A preemergence, visual injury rating; conditions: 0 to 100 scale (0 no effect, 100 complete control)
# Summary of the method: as §1
# [5] = tested on: ragweed (common ragweed, Ambrosia elatior); experiment: Test A preemergence, visual injury rating; conditions: 0 to 100 scale (0 no effect, 100 complete control)
# Summary of the method: as §1
# [6] = tested on: barnyardgrass (Echinochloa crus-galli); experiment: Test B flooded paddy test, plant response rating; conditions: 250 g ai/ha; Flood; scale of 0 to 100 where 0 is no effect and 100 is complete control; 13 to 15 days
# Summary of the method: (§2)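 Test compounds are applied straight into paddy water held 3 cm above the soil surface, with that flood maintained for the whole test. After 13 to 15 days in the greenhouse, each species is scored visually relative to controls.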
# [7] = tested on: ducksalad (Heteranthera limosa); experiment: Test B flooded paddy test, plant response rating; conditions: 250 g ai/ha; Flood; scale of 0 to 100 where 0 is no effect and 100 is complete control; 13 to 15 days
# Summary of the method: as §2
# rice (Oryza sativa) = experiment: Test B flooded paddy test, plant response rating; conditions: 250 g ai/ha; Flood; scale of 0 to 100 where 0 is no effect and 100 is complete control; 13 to 15 days
# Summary of the method: as §2
# [8] = tested on: sedge, umbrella (small-flower umbrella sedge, Cyperus difformis); experiment: Test B flooded paddy test, plant response rating; conditions: 250 g ai/ha; Flood; scale of 0 to 100 where 0 is no effect and 100 is complete control; 13 to 15 days
# Summary of the method: as §2
# [9] = tested on: blackgrass (Alopecurus myosuroides); experiment: Test C preemergence, plant response rating; conditions: Preemergence
# Summary of the method: (§3)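 Visual injury score, 0 = no effect, 100 = complete control, assigned against untreated controls after 13 to 15 d in the greenhouse. Compounds were applied in a surfactant-containing non-phytotoxic solvent mix, preemergence to seeded loam/sand or silt loam soil, or postemergence to 1- to 4-leaf plants (2 to 18 cm).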
# corn (Zea mays) = experiment: Test C preemergence, plant response rating; conditions: Preemergence
# Summary of the method: as §3
# [10] = tested on: crabgrass, large (large crabgrass, Digitaria sanguinalis); experiment: Test C preemergence, plant response rating; conditions: Preemergence
# Summary of the method: as §3
# [11] = tested on: foxtail, giant (giant foxtail, Setaria faberii); experiment: Test C preemergence, plant response rating; conditions: Preemergence
# Summary of the method: as §3
# [12] = tested on: oilseed rape (Brassica napus); experiment: Test C preemergence, plant response rating; conditions: Preemergence
# Summary of the method: as §3
# [13] = tested on: ragweed (common ragweed, Ambrosia elatior); experiment: Test C preemergence, plant response rating; conditions: Preemergence
# Summary of the method: as §3
# [14] = tested on: ryegrass, Italian (Italian ryegrass, Lolium multiflorum); experiment: Test C preemergence, plant response rating; conditions: Preemergence
# Summary of the method: as §3
# soybean (Glycine max) = experiment: Test C preemergence, plant response rating; conditions: Preemergence
# Summary of the method: as §3
smiles,measurement,setting,value
O=C(CCCC(F)(F)F)c1c(Oc2ncc(Cl)cn2)cccc1C(F)(F)F [Compound 125],"Plant response rating, Ryegrass, Italian",[1]; 125 g ai/ha,70
same,"Ryegrass, Italian plant response rating",[1]; 500 g ai/ha,100
same,"Plant response rating, Barnyardgrass",[2]; 125 g ai/ha,100
same,Barnyardgrass plant response rating,[2]; 500 g ai/ha,100
same,"Plant response rating, Foxtail, Giant",[3]; 125 g ai/ha,100
same,"Foxtail, Giant plant response rating",[3]; 500 g ai/ha,100
same,"Plant response rating, Kochia",kochia (Kochia scoparia); 125 g ai/ha,100
same,Kochia plant response rating,kochia (Kochia scoparia); 500 g ai/ha,100
same,"Plant response rating, Pigweed",[4]; 125 g ai/ha,100
same,Pigweed plant response rating,[4]; 500 g ai/ha,100
same,"Plant response rating, Ragweed",[5]; 125 g ai/ha,20
same,Ragweed plant response rating,[5]; 500 g ai/ha,40
same,"Plant response rating, Barnyardgrass",[6],45
same,"Plant response rating, Ducksalad",[7],70
same,"Plant response rating, Rice",rice (Oryza sativa),35
same,"Plant response rating, Sedge, Umbrella",[8],90
same,"Plant response rating, Blackgrass","[9]; 125 g ai/ha, scale of 0 to 100",90
same,"Plant response rating, Blackgrass","[9]; 16 g ai/ha, scale 0 to 100",5
same,"Plant response rating, Blackgrass","[9]; 31 g ai/ha, scale 0 to 100",60
same,"Plant response rating, Blackgrass","[9]; 62 g ai/ha, scale 0 to 100",60
same,"Plant response rating, Corn","corn (Zea mays); 125 g ai/ha, scale of 0 to 100",5
same,"Plant response rating, Corn","corn (Zea mays); 16 g ai/ha, scale 0 to 100",0
same,"Plant response rating, Corn","corn (Zea mays); 31 g ai/ha, scale 0 to 100",0
same,"Plant response rating, Corn","corn (Zea mays); 62 g ai/ha, scale 0 to 100",5
same,"Plant response rating, Crabgrass, Large","[10]; 125 g ai/ha, scale of 0 to 100",100
same,"Plant response rating, Crabgrass, Large","[10]; 16 g ai/ha, scale 0 to 100",35
same,"Plant response rating, Crabgrass, Large","[10]; 31 g ai/ha, scale 0 to 100",98
same,"Plant response rating, Crabgrass, Large","[10]; 62 g ai/ha, scale 0 to 100",100
same,"Plant response rating, Foxtail, Giant","[11]; 125 g ai/ha, scale of 0 to 100",100
same,"Plant response rating, Foxtail, Giant","[11]; 31 g ai/ha, scale 0 to 100",85
same,"Plant response rating, Foxtail, Giant","[11]; 62 g ai/ha, scale 0 to 100",98
same,"Plant response rating, Oilseed Rape","[12]; 125 g ai/ha, scale of 0 to 100",80
same,"Plant response rating, Oilseed Rape","[12]; 31 g ai/ha, scale 0 to 100",5
same,"Plant response rating, Oilseed Rape","[12]; 62 g ai/ha, scale 0 to 100",50
same,"Plant response rating, Ragweed","[13]; 125 g ai/ha, scale of 0 to 100",35
same,"Plant response rating, Ragweed","[13]; 31 g ai/ha, scale 0 to 100",10
same,"Plant response rating, Ragweed","[13]; 62 g ai/ha, scale 0 to 100",5
same,"Plant response rating, Ryegrass, Italian","[14]; 125 g ai/ha, scale of 0 to 100",85
same,"Plant response rating, Ryegrass, Italian","[14]; 31 g ai/ha, scale 0 to 100",30
same,"Plant response rating, Ryegrass, Italian","[14]; 62 g ai/ha, scale 0 to 100",40
same,"Plant response rating, Soybean","soybean (Glycine max); 125 g ai/ha, scale of 0 to 100",20
same,"Plant response rating, Soybean","soybean (Glycine max); 31 g ai/ha, scale 0 to 100",0
same,"Plant response rating, Soybean","soybean (Glycine max); 62 g ai/ha, scale 0 to 100",0

# From US11053204B2, “Pyrimidinyloxy benzene derivatives as herbicides” (FMC Corporation, priority 2015, dated 2021)
